Laboratory results as given in publication PMC10037499, “High-Throughput Screen Reveals the Structure–Activity Relationship of the Antimicrobial Lasso Peptide Ubonodin” (ACS Central Science, 2023).
Values after ≈ are worked out from the molar mass of the structure shown. Where a SMILES comes first, the peptide text is derived from it.

How the values were obtained:
B. cenocepacia AU24362 = test system: B. cenocepacia AU24362; design: method as in PMID 35802499; settings: spot-on-lawn assay; cited from earlier work
From the text: We proceeded to test the antimicrobial activity of the selected variants against two clinical isolates of the Bcc, B. cenocepacia AU0756 and B. cenocepacia AU24362, in broth microdilution assays. […] We revisited these measurements using broth microdilution assays following the Clinical & Laboratory Standards Institute (CLSI) standard.

E. coli MC1061 = test: Colony-forming units of E. coli MC1061 pUboABC after IPTG induction; assay type: cell-based; settings: wild-type uboA induced, no uboD, three biological replicates
Method: E. coli MC1061 pUboABC and E. coli MC1061 pUboBC cultures were grown. Aliquots of the cultures were sampled prior to and after induction with 10 μM IPTG and 100 μM IPTG, and 10-fold serial dilutions were plated. Colonies were counted 16 h after incubation. […]
fold serial dilutions were spotted onto LB plates supplemented with 100 μ g/m L ampicillin and 0.2% w/v glucose. Plates were incubated for 16 hours at 37 °C before imaging.
Colony- Forming Units of E. coli MC1061 pUboABC and E. coli MC1061 pUboBC pUboABC and pUboBC were transformed into electrocompetent E. coli MC1061, plated onto LB plates supplemented with 100 μ g/ m L ampicillin and 0.2% w/v glucose, and incubated at 37 °C for 16 hours. Single colonies were inoculated into LB media supplemented with 100 μ g/ m L ampicillin and 0.2% w/v glucose and shaken at 37 °C for 16 hours. These cultures were then sub-cultured to an OD600 of 0.02 into 50 mL of LB media supplemented with 100 μg/mL ampicillin in a 250 mL flask. Ten-fold serial dilutions of the culture were plated onto LB plates supplemented with 100 μ g/ m L ampicillin and 0.2% w/v glucose. […] All plates were incubated at 37 °C for 16 hours, after which the number of colonies was counted. […]
A small quantity of DNA was used to reduce the probability of two plasmids being transformed into the same cell. […]

SMILES: CC[C@H](C)[C@@H]1NC(=O)[C@H](CO)NC(=O)CNC(=O)[C@H](CC(=O)O)NC(=O)CNC(=O)CNC(=O)CC[C@@H](C(=O)N[C@@H](Cc2ccc(O)cc2)C(=O)N[C@@H](Cc2ccccc2)C(=O)N[C@@H](CC(N)=O)C(=O)N[C@@H](CCCNC(=N)N)C(=O)N2CCC[C@H]2C(=O)N[C@@H](CCSC)C(=O)N[C@@H](Cc2c[nH]cn2)C(=O)N[C@H](C(=O)N[C@@H](Cc2c[nH]cn2)C(=O)N[C@@H](CC(=O)O)C(=O)N[C@@H](Cc2c[nH]c3ccccc23)C(=O)N[C@@H](CCC(N)=O)C(=O)N[C@H](C(=O)N[C@@H](CCSC)C(=O)N[C@@H](CC(=O)O)C(=O)N[C@@H](CO)C(=O)NCC(=O)N[C@@H](Cc2ccc(O)cc2)C(=O)N[C@@H](Cc2ccc(O)cc2)C(=O)NCC(=O)O)[C@@H](C)CC)[C@@H](C)CC)NC(=O)[C@H](C)NC1=O [WT, ubonodin] (HELM PEPTIDE1{G.G.D.G.S.I.A.E.Y.F.N.R.P.M.H.I.H.D.W.Q.I.M.D.S.G.Y.Y.G}$PEPTIDE1,PEPTIDE1,1:R1-8:R3$$$V2.0; C-terminus assumed)
- MIC against strain AU24362 (B. cenocepacia AU24362): 20 µM (≈ 64 µg/mL)
- Reduction in viable cell concentration (CFU per mL) after IPTG induction (E. coli MC1061): 3 log
